Measurements reported in ChEMBL document CHEMBL1126256, “Structural modifications of camptothecin and effects on topoisomerase I inhibition” (J Med Chem, 1992).
The source made the active and inactive calls. No cut-off for these calls is given here.

What was measured:
[1] = biological target: T1, DNA topoisomerase 1 (Homo sapiens) (UniProt P11387); assay: Relative activity against Topoisomerase I was measured at concentration of 360 uM to that of camptothecin; Active, 35 fold less than camptothecin
T1 sequence (whole entry): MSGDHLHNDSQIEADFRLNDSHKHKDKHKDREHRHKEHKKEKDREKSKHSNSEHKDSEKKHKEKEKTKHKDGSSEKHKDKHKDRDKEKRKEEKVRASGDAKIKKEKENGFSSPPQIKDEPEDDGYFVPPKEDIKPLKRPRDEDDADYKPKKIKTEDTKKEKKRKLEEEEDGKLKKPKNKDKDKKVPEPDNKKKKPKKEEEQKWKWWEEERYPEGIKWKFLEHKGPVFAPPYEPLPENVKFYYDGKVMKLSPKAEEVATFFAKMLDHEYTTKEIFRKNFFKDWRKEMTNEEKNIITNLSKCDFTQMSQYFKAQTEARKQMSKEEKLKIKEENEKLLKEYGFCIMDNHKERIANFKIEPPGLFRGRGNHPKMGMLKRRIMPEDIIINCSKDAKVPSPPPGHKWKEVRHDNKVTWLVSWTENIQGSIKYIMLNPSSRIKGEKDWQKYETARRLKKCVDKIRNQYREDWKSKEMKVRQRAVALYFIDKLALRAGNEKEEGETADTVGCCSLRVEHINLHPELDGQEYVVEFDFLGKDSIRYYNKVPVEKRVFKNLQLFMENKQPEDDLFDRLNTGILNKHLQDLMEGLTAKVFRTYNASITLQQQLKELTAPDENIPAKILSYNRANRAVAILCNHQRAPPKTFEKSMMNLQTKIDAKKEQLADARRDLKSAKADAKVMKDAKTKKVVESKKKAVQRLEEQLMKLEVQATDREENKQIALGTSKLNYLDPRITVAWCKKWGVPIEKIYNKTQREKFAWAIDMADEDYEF

[2] = biological target: T1, DNA topoisomerase 1 (Homo sapiens); assay: Relative activity against DNA topoisomerase I was measured at concentration of 12 uM to that of camptothecin
[3] = biological target: T1, DNA topoisomerase 1 (Homo sapiens); assay: Relative activity against DNA topoisomerase I was measured at concentration of 554 uM to that of camptothecin; Active, 50 fold less than camptothecin
[4] = biological target: T1, DNA topoisomerase 1 (Homo sapiens); assay: Relative activity against DNA topoisomerase I was measured at concentration of 277 uM to that of camptothecin; inactive
[5] = biological target: T1, DNA topoisomerase 1 (Homo sapiens); assay: Relative activity against DNA topoisomerase I was measured at concentration of 166 uM to that of camptothecin; Inactive
[6] = biological target: T1, DNA topoisomerase 1 (Homo sapiens); assay: Relative activity against DNA topoisomerase I was measured at concentration of 200 uM to that of camptothecin; Inactive
[7] = biological target: T1, DNA topoisomerase 1 (Homo sapiens); assay: Relative activity against DNA topoisomerase I was measured at concentration of 833 uM to that of camptothecin; Inactive
[8] = biological target: T1, DNA topoisomerase 1 (Homo sapiens); assay: Relative activity against DNA topoisomerase I was measured at concentration of 83 uM to that of camptothecin; Active, 10 fold less than camptothecin
[9] = biological target: T1, DNA topoisomerase 1 (Homo sapiens); assay: Relative activity against Topoisomerase I was measured at concentration of 25 uM to that of camptothecin; Inactive
[10] = biological target: T1, DNA topoisomerase 1 (Homo sapiens); assay: Relative activity against DNA topoisomerase I was measured at concentration of 625 uM to that of camptothecin; Inactive

CCC1C(=O)OCc2c1c(C(=O)OC)c1n(c2=O)Cc2ccccc2-1 (configuration not stated)
Relative activity [1]: Active | Relative activity [2]: inactive

COC(=O)Cc1cc2n(c(=O)c1)Cc1cc3ccccc3nc1-2
Relative activity [3]: Active | Relative activity [4]: inactive

COC(=O)Cc1cc(=O)n2c(c1C(=O)OC)-c1nc3ccccc3cc1C2
Relative activity [5]: inactive

CCC(C(=O)OC)c1cc2n(c(=O)c1)Cc1cc3ccccc3nc1-2 (configuration not stated)
Relative activity [6]: inactive

CCC(C(=O)OC)c1cc(=O)n2c(c1C(=O)OC)C1Cc3ccccc3CC1C2 (configuration not stated)
Relative activity [7]: inactive

CCC1C(=O)OCc2c1cc1n(c2=O)Cc2ccccc2-1 (configuration not stated)
Relative activity [8]: Active | Relative activity [9]: inactive

COC(=O)Cc1cc(=O)n2c(c1C(=O)OC)C1Cc3ccccc3CC1C2 (configuration not stated)
Relative activity [7]: inactive

CCC(C(=O)OC)c1cc(=O)n2c(c1C(=O)OC)-c1nc3ccccc3cc1C2 (configuration not stated)
Relative activity [10]: inactive

CCC1C(=O)OCc2c1c(C(=O)OC)c1n(c2=O)CC2Cc3ccccc3CC12 (configuration not stated)
Relative activity [7]: inactive
